Assay results: PubChem BioAssay (NCI)
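Assay format: 96-well plates, 48-hour exposure. GI50: concentration for 50% inhibition of growth. At the TGI there is no net growth.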

Experiments:
Assay in all cases: growth of human tumour cells (NCI), 48 h
MOLT-4 leukemia = test system: MOLT-4 leukemia
SK-MEL-2 melanoma = test system: SK-MEL-2 melanoma
HOP-92 NSCLC = test system: HOP-92 NSCLC
SF-539 CNS = test system: SF-539 CNS
SF-268 CNS = test system: SF-268 CNS
RXF 393 renal = test system: RXF 393 renal
OVCAR-4 ovarian = test system: OVCAR-4 ovarian
EKVX NSCLC = test system: EKVX NSCLC
NCI-H23 lung = test system: NCI-H23 lung
CCRF-CEM leukemia = test system: CCRF-CEM leukemia

| SMILES | TGI (MOLT-4 leukemia) | TGI (SK-MEL-2 melanoma) | TGI (HOP-92 NSCLC) | TGI (SF-539 CNS) | TGI (SF-268 CNS) | TGI (RXF 393 renal) | TGI (OVCAR-4 ovarian) | TGI (EKVX NSCLC) | TGI (NCI-H23 lung) | TGI (CCRF-CEM leukemia) | GI50 (MOLT-4 leukemia) | GI50 (SK-MEL-2 melanoma) | GI50 (HOP-92 NSCLC) | GI50 (SF-539 CNS) | GI50 (SF-268 CNS) | GI50 (RXF 393 renal) | GI50 (OVCAR-4 ovarian) | GI50 (EKVX NSCLC) | GI50 (NCI-H23 lung) | GI50 (CCRF-CEM leukemia) |
| --- | --- | --- | --- | --- | --- | --- | --- | --- | --- | --- | --- | --- | --- | --- | --- | --- | --- | --- | --- | --- |
| Fc1cccc(F)c1C1SCc2nc3ccccc3n21 (stereo not given) | > 100 µM | > 100 µM | 95.3 µM | > 100 µM | > 100 µM | > 100 µM | > 100 µM | > 100 µM | > 100 µM | > 100 µM |  |  |  |  |  |  |  |  |  |  |
| COc1ccc2[nH]cc(/C=C3\C(=O)Nc4ccccc43)c2c1 | 7.4 µM | 29.2 µM | 13.6 µM | 18.1 µM | 29.9 µM | 13.3 µM | 60.3 µM | 15.1 µM | 49.6 µM | 18.8 µM | 2.33 µM | 10.2 µM | 3.84 µM | 5.43 µM | 5.92 µM | 2.95 µM | 6.21 µM | 2.73 µM | 10.5 µM | 3.94 µM |
| CN(C)CCCC1(c2ccc(F)cc2)OCc2cc(-c3ccc4cc[nH]c4c3)ccc21 (stereo not given) | 4.34 µM | 4.72 µM | 7.9 µM | 3.23 µM | 3.26 µM | 7.56 µM | 4.72 µM | 5 µM | 4.11 µM | 7.12 µM | 2.04 µM | 2.19 µM | 2.28 µM | 1.78 µM | 1.64 µM | 2.48 µM | 2.16 µM | 2.04 µM | 1.97 µM | 2.65 µM |
| CN/N=C(\C)CC(=O)Nc1cccc(Cl)c1C | > 100 µM | > 100 µM | > 100 µM | > 100 µM | > 100 µM | > 100 µM | > 100 µM | > 100 µM | > 100 µM | > 100 µM |  |  |  |  |  |  |  |  |  |  |
| O=C(c1cccs1)c1c(C(F)(F)F)n([O-])c2cc(F)c(F)cc2[n+]1=O | 7.84 µM | 8.63 µM | 4.24 µM | 0.588 µM | 6.88 µM | 7.16 µM | 50 µM | 6.73 µM | 4.94 µM | 0.729 µM | 0.498 µM | 5.44 µM | 1.46 µM | 0.314 µM | 2.99 µM | 2.42 µM | 31.9 µM | 2.44 µM | 2.26 µM | 0.18 µM |
| N#CC1=C(N)Oc2c(sc3c(F)cccc23)C1c1ccc([N+](=O)[O-])cc1 (stereo not given) | 1.46 µM | 1.23 µM | 1.18 µM | 0.524 µM | 1.93 µM | 0.753 µM | 1.9 µM | 2.63 µM | 1.46 µM | 3.23 µM | 0.132 µM | 0.17 µM | 0.156 µM | 0.188 µM | 0.325 µM | 0.191 µM | 0.312 µM | 0.432 µM | 0.284 µM | 0.179 µM |
